Assays:
[1] = biological target: butyrylcholinesterase (BuChE) (Homo sapiens, UniProt P06276); assay: In vitro butyrylcholinesterase inhibitory activity; format: biochemical
[2] = biological target: acetylcholinesterase (AChE) (Homo sapiens, UniProt P22303); assay: biochemical
Chain of acetylcholinesterase (AChE) (P22303 32-614, species assumed): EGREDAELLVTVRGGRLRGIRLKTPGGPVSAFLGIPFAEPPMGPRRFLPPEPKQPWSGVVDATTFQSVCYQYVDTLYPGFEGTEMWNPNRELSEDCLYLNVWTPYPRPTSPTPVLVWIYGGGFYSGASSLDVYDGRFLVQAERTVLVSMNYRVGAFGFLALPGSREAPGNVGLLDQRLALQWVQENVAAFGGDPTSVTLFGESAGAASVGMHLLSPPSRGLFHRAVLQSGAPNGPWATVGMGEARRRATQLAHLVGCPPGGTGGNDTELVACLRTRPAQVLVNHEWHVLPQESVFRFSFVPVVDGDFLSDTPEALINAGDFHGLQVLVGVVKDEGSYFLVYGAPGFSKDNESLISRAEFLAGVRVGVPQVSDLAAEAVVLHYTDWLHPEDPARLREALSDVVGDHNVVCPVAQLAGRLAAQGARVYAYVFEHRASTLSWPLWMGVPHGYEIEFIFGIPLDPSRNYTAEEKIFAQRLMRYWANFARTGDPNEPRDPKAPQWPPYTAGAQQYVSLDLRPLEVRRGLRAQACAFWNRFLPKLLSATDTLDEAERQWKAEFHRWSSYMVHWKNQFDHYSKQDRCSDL

Chain of butyrylcholinesterase (BuChE) (P06276 29-602): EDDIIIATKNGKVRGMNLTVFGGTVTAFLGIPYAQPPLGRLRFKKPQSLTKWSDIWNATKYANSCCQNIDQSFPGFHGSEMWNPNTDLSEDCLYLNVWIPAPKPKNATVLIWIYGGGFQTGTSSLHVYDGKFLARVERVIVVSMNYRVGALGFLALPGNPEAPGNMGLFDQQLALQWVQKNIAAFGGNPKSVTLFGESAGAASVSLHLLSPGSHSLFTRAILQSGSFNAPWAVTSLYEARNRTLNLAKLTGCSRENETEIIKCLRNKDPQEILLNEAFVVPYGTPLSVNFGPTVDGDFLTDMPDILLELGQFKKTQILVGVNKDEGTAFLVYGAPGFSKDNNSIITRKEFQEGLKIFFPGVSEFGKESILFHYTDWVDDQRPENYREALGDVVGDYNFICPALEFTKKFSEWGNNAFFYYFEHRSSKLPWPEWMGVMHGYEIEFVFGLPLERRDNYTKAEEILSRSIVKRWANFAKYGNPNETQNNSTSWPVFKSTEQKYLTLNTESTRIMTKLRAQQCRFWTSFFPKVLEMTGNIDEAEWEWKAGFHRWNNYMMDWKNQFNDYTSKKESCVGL

| SMILES | IC50 [1] [µM] | IC50 [2] [µM] |
| --- | --- | --- |
| CCN(CC)c1ccc(C=NN=C(C)c2ccc(OCc3ccc(Br)cc3)cc2)cc1 [Compound 2a, 4-(((1-(4-((4-bromobenzyl)oxy)phenyl)ethylidene)hydrazineylidene)methyl)-N,N-diethylaniline] | 77.9 ± 1.46 | 44.36 ± 0.33 |
| COc1cccc(C=NN=C(C)c2ccc(OCc3ccc(Br)cc3)cc2)c1O [Compound 2b, 2-(((1-(4-((4-Bromobenzyl)oxy)phenyl)ethylidene)hydrazono)methyl)-6-methoxyphenol] | 35.31 ± 0.01 | 18.6 ± 0.21 |
| CC(=NN=Cc1ccc(Br)cc1F)c1ccc(OCc2ccc(Br)cc2)cc1 [Compound 2c, 1-(4-Bromo-2-fluorobenzylidene)-2-(1-(4-((4-bromobenzyl)oxy)phenyl)ethylidene)hydrazine] | 175 ± 2.96 | 150 ± 2.26 |
| CC(=NN=Cc1ccc(Cl)cc1)c1ccc(OCc2ccc(Br)cc2)cc1 [Compound 2d, 1-(1-(4-((4-Bromobenzyl)oxy)phenyl)ethylidene)-2-(4-chlorobenzylidene)hydrazine] | 161.8 ± 0.07 | 139 ± 2.33 |
| CC(=NN=Cc1ccc(C)o1)c1ccc(OCc2ccc(Br)cc2)cc1 [Compound 2e, 1-(1-(4-((4-Bromobenzyl)oxy)phenyl)ethylidene)-2-((5-methylfuran-2-yl)methylene) hydrazine] | 136 ± 2.61 | 98.21 ± 0.01 |
| COc1ccc(C=NN=C(C)c2ccc(OCc3ccc(Br)cc3)cc2)cc1 [Compound 2f, 1-(1-(4-((4-Bromobenzyl)oxy)phenyl)ethylidene)-2-(4-methoxybenzylidene)hydrazine] | 76.3 ± 1.17 | 48.37 ± 0.06 |
| CC(=NN=Cc1ccc(C)cc1)c1ccc(OCc2ccc(Br)cc2)cc1 [Compound 2g, 1-(1-(4-((4-Bromobenzyl)oxy)phenyl)ethylidene)-2-(4-methylbenzylidene)hydrazine] | 98.7 ± 1.18 | 62.28 ± 0.42 |
| CC(=NN=Cc1cccc2ccccc12)c1ccc(OCc2ccc(Br)cc2)cc1 [Compound 2h, 1-(1-(4-((4-Bromobenzyl)oxy)phenyl)ethylidene)-2-(naphthalen-1-ylmethylene)hydrazine] | 166.3 ± 1.2 | 128.2 ± 0.98 |
| CC(=NN=Cc1ccc(C=O)cc1)c1ccc(OCc2ccc(Br)cc2)cc1 [Compound 2i, 4-(((1-(4-((4-Bromobenzyl)oxy)phenyl)ethylidene)hydrazono)methyl)benzaldehyde] | 177 ± 3.53 | 141.8 ± 0.77 |

Reference: paper PMC12188521 (RSC Advances, 2025)
